Test results published in patent publication US8633200B2, “Inhibitors of human immunodeficiency virus replication” (priority 2010, dated 2014).
Like-named read-outs stand apart in the source and are kept apart here.

System: recombinant NL-Rluc virus (NL4-3 with Renilla Luciferase gene) in MT-2 cells
Assay: Inhibition of HIV replication (NL-Rluc luciferase reporter virus, MT-2 cells)
Format: cell-based, human immunodeficiency virus (HIV)
Details: NL43, 120 h

SMILES	EC50 (read-out: Activity) [µM]	EC50 (read-out: EC50 μM) [µM]
COc1ccncc1-c1cccc(-c2nn3c(-c4cc(F)c5c(c4C)CCCO5)c([C@H](OC(C)(C)C)C(=O)O)c(C)nc3c2C)c1 [Example 160, (2S)-2-(tert-Butoxy)-2-(7-(8-fluoro-5-methylchroman-6-yl)-2-(3-(4-methoxypyridin-3-yl)phenyl)-3,5-dimethylpyrazolo[1,5-a]pyrimidin-6-yl)acetic acid]	< 0.1	0.01
Cc1nc2c(C)c(-c3cccc(-c4ccc5c(cnn5C)c4)c3)nn2c(-c2cc(F)c3c(c2C)CCCO3)c1[C@H](OC(C)(C)C)C(=O)O [Example 161, (2S)-2-(tert-Butoxy)-2-(7-(8-fluoro-5-methylchroman-6-yl)-3,5-dimethyl-2-(3-(1-methyl-1H-indazol-5-yl)phenyl)pyrazolo[1,5-a]pyrimidin-6-yl)acetic acid]	< 0.1	–
Cc1nc2c(C)c(-c3cccc(-c4ccccc4F)c3)nn2c(-c2cc(F)c3c(c2C)CCCO3)c1[C@H](OC(C)(C)C)C(=O)O [Example 162, (2S)-2-(tert-Butoxy)-2-(7-(8-fluoro-5-methylchroman-6-yl)-2-(2′-fluoro-[1,1′-biphenyl]-3-yl)-3,5-dimethylpyrazolo[1,5-a]pyrimidin-6-yl)acetic acid]	< 0.1	–
Cc1nc2c(C)c(-c3ccccc3)nn2c(-c2cc(F)c3c(c2C)CCCO3)c1[C@H](OC(C)(C)C)C(=O)O [Example 163, (2S)-2-(tert-Butoxy)-2-(7-(8-fluoro-5-methylchroman-6-yl)-3,5-dimethyl-2-phenylpyrazolo[1,5-a]pyrimidin-6-yl)acetic acid]	< 0.1	0.2
Cc1nc2c(C)c(-c3cccc(-c4cccc(F)c4)c3)nn2c(-c2cc(F)c3c(c2C)CCCO3)c1[C@H](OC(C)(C)C)C(=O)O [Example 164, (2S)-2-(tert-Butoxy)-2-(7-(8-fluoro-5-methylchroman-6-yl)-2-(3′-fluoro-[1,1′-biphenyl]-3-yl)-3,5-dimethylpyrazolo[1,5-a]pyrimidin-6-yl)acetic acid]	< 0.1	–
Cc1cc(-c2cccc(-c3cc4nc(C)c([C@H](OC(C)(C)C)C(=O)O)c(-c5cc(F)c6c(c5C)CCCO6)n4n3)c2)ccc1F [Example 165, (2S)-2-(tert-Butoxy)-2-(2-(4′-fluoro-3′-methyl-[1,1′-biphenyl]-3-yl)-7-(8-fluoro-5-methylchroman-6-yl)-5-methylpyrazolo[1,5-a]pyrimidin-6-yl)acetic acid]	< 0.1	–
Cc1cc(F)ccc1-c1cccc(-c2cc3nc(C)c([C@H](OC(C)(C)C)C(=O)O)c(-c4cc(F)c5c(c4C)CCCO5)n3n2)c1 [Example 166, (2S)-2-(tert-Butoxy)-2-(2-(4′-fluoro-2′-methyl-[1,1′-biphenyl]-3-yl)-7-(8-fluoro-5-methylchroman-6-yl)-5-methylpyrazolo[1,5-a]pyrimidin-6-yl)acetic acid]	< 0.1	–
Cc1ncccc1-c1cccc(-c2cc3nc(C)c([C@H](OC(C)(C)C)C(=O)O)c(-c4cc(F)c5c(c4C)CCCO5)n3n2)c1 [Example 167, (2S)-2-(tert-Butoxy)-2-(7-(8-fluoro-5-methylchroman-6-yl)-5-methyl-2-(3-(2-methylpyridin-3-yl)phenyl)pyrazolo[1,5-a]pyrimidin-6-yl)acetic acid]	< 0.1	–
COc1cc(-c2cccc(-c3cc4nc(C)c([C@H](OC(C)(C)C)C(=O)O)c(-c5cc(F)c6c(c5C)CCCO6)n4n3)c2)ccn1 [Example 168, (2S)-2-(tert-Butoxy)-2-(7-(8-fluoro-5-methylchroman-6-yl)-2-(3-(2-methoxypyridin-4-yl)phenyl)-5-methylpyrazolo[1,5-a]pyrimidin-6-yl)acetic acid]	< 0.1	–
COc1ccc(-c2cccc(-c3cc4nc(C)c([C@H](OC(C)(C)C)C(=O)O)c(-c5cc(F)c6c(c5C)CCCO6)n4n3)c2)cn1 [Example 169, (2S)-2-(tert-Butoxy)-2-(7-(8-fluoro-5-methylchroman-6-yl)-2-(3-(6-methoxypyridin-3-yl)phenyl)-5-methylpyrazolo[1,5-a]pyrimidin-6-yl)acetic acid]	< 0.1	–
Cc1cc(-c2cccc(-c3cc4nc(C)c([C@H](OC(C)(C)C)C(=O)O)c(-c5cc(F)c6c(c5C)CCCO6)n4n3)c2)ccn1 [Example 170, (2S)-2-(tert-Butoxy)-2-(7-(8-fluoro-5-methylchroman-6-yl)-5-methyl-2-(3-(2-methylpyridin-4-yl)phenyl)pyrazolo[1,5-a]pyrimidin-6-yl)acetic acid]	< 0.1	–
Cc1nc2cc(-c3cccc(-c4cncc(F)c4)c3)nn2c(-c2cc(F)c3c(c2C)CCCO3)c1[C@H](OC(C)(C)C)C(=O)O [Example 171, (2S)-2-(tert-Butoxy)-2-(7-(8-fluoro-5-methylchroman-6-yl)-2-(3-(5-fluoropyridin-3-yl)phenyl)-5-methylpyrazolo[1,5-a]pyrimidin-6-yl)acetic acid]	< 0.1	–
Cc1nc2cc(-c3cccc(-c4cnc5ccccc5c4)c3)nn2c(-c2cc(F)c3c(c2C)CCCO3)c1[C@H](OC(C)(C)C)C(=O)O [Example 172, (2S)-2-(tert-Butoxy)-2-(7-(8-fluoro-5-methylchroman-6-yl)-5-methyl-2-(3-(quinolin-3-yl)phenyl)pyrazolo[1,5-a]pyrimidin-6-yl)acetic acid]	< 0.1	–
Cc1nc2cc(-c3cccc(-c4ccccc4C(F)(F)F)c3)nn2c(-c2cc(F)c3c(c2C)CCCO3)c1[C@H](OC(C)(C)C)C(=O)O [Example 173, (2S)-2-(tert-Butoxy)-2-(7-(8-fluoro-5-methylchroman-6-yl)-5-methyl-2-(2′-(trifluoromethyl)-[1,1′-biphenyl]-3-yl)pyrazolo[1,5-a]pyrimidin-6-yl)acetic acid]	< 0.1	–
Cc1nc2cc(-c3cccc(-c4cnn(-c5ccccc5)c4C)c3)nn2c(-c2cc(F)c3c(c2C)CCCO3)c1[C@H](OC(C)(C)C)C(=O)O [Example 174, (2S)-2-(tert-Butoxy)-2-(7-(8-fluoro-5-methylchroman-6-yl)-5-methyl-2-(3-(5-methyl-1-phenyl-1H-pyrazol-4-yl)phenyl)pyrazolo[1,5-a]pyrimidin-6-yl)acetic acid]	< 0.1	–
Cc1nc2cc(-c3cccc(-c4ccnc(N5CCN(C)CC5)c4)c3)nn2c(-c2cc(F)c3c(c2C)CCCO3)c1[C@H](OC(C)(C)C)C(=O)O [Example 175, (2S)-2-(tert-Butoxy)-2-(7-(8-fluoro-5-methylchroman-6-yl)-5-methyl-2-(3-(2-(4-methylpiperazin-1-yl)pyridin-4-yl)phenyl)pyrazolo[1,5-a]pyrimidin-6-yl)acetic acid]	< 0.1	–
